Measurements reported in US20260248087A1, “GENERATING DOUBLED HAPLOID PLANTS” (Syngenta Crop Protection AG, priority 2023, published 2026).
Where “and” joins values, the source holds several entries; their conditions need not be identical. Identical values can stand only once.

Experiments:
embryos from maize ears [1] = assay: Potting and transplant rate, co-treatment with metcamifen and thiamethoxam during colchicine doubling; format: in vivo
Text: (§1) As used herein, the term “potted rate” or “potting rate” refers to the percent of germinated embryos successfully transferred to soil from total treated haploid embryos. The “potted rate” is used as an indication of plant health in monitoring the success of recovery and growth after treatment of haploids. As used herein, the term “transplant rate” refers to the survival of healthy plants after embryos were germinated and transferred to soil.
(§2) To assess the impact of the safener and vigor enhancing compounds on the full DH production pipeline, experiments were designed and conducted spanning haploid embryo isolation, doubling treatment, germination, potting, growth to maturity, selfing, and seed set evaluation. Embryos from maize ears of two genotypes were isolated and co-treated with both metcamifen and thiamethoxam during the colchicine doubling treatment, in triplicate. Metcamifen was added in the Murashige and Skoog Medium (MS medium) at concentrations ranging from 400 to 800 mg/L in combination with TMX at concentrations ranging from 4000 to 6000 mg/L. Control co-treatments with metcamifen alone, TMX alone, or colchine-only were run in parallel. Concentrations for co-treatments were selected based on best outcomes from experiments in Examples 1-8. The co-treatments incubated for 24 and 48 hours at 28° C. with 150 PAR light. Resulting embryos were germinated and the percentage of embryos successfully transferred to soil was measured as the potting rate. The survival of healthy plants was measured as the transplant rate.

embryos from maize ears [2] = assay: Ear kernel setting rates and DH yield after co-treatment with metcamifen and thiamethoxam; format: in vivo; settings: for Ears >4 Rate Mean / Ears >49 Rate Mean: co-treatment with colchicine
Description: as §2, with “transplant rate. […]” for “transplant rate.”
One way of measuring the success of DH production is a ratio of output:input, defined as “DH yield”, where a larger ratio is typically desirable for a more efficient production system. In this study, we measured this in two ways: DH ears/total haploid embryos and DH ears/transplants (see Table 15).

GST27 = GST27 induction, metcamifen and thiamethoxam co-treatment in liquid medium; format: cell-based, maize
Description: For the examples below, GST27 was used as a quick indicator for treatment effectiveness.
(§3) Isolated embryos were placed in a Petri dish on filter paper wetted with liquid Murashige and Skoog Medium (MS medium) containing colchicine and a formulation of metcamifen at 800 mg/L, TMX at 4000 mg/L, or a combination of 800 mg/L metcamifen and 4000 mg/L TMX. The colchicine treatment control used the same conditions except with a medium containing 3.5 g/L Gelzan as compared to the liquid medium without Gelzan. The co-treatments incubated for 24 or 48 hours at 28° C. with 150 PAR light and were conducted on 2 genotypes with 2 replicates. The effects on GST expression, potting rate, and transplant rate are reported (see Table 16). The rate of diploid escapes observed increased to 6.4-8.5% in the 24-hour co-treatments with 4000 mg/L TMX and 4000 mg/L TMX combined with 800 mg/L metcamifen. In all other co-treatments, the escape rate was 0%. […] The best transplant rates observed were in the 24-hour duration 4000 mg/L TMX co-treatment (90%) compared to the control (72%).
(§4) In a separate experiment, additional concentrations of metcamifen and TMX co-treatment were tested in liquid co-treatments. The experimental setup was the same as described above for the data in Table 16, but the co-treatment concentrations were varied. […] The decreased concentrations were associated with lower rates of escapes in the 24-hour co-treatments, only the metcamifen with TMX combination co-treatment produced escapes (1.8%). Potting and transplant rates remained high, with the best performance in the 24-hour metcamifen with TMX combination co-treatment (96% potting, and 87% transplant) compared to the colchicine-only control (60% potting, and 47% transplant) (see Table 17). In all liquid media co-treatments, higher rates of bacterial and/or fungal contamination were observed. In total, 35% of the attempted experiments were discarded due to contamination issues and excluded from the data analysis.

isolated embryos = assay: Potting and transplant rate, metcamifen and thiamethoxam co-treatment in liquid medium; format: in vivo, maize
Text: as §1, §3, §4

[3] = Table 16, liquid medium: metcamifen 800 mg/L, 24 Hour
[4] = Table 16, liquid medium: metcamifen 800 mg/L, 48 Hour
[5] = Table 17, liquid medium: metcamifen 800 mg/L, 24 Hour
[6] = Table 17, liquid medium: metcamifen 800 mg/L, 48 Hour
[7] = Table 16, liquid medium: TMX 4000 mg/L, 24 Hour
[8] = Table 16, liquid medium: TMX 4000 mg/L, 48 Hour
[9] = Table 17, liquid medium: TMX 4000 mg/L, 24 Hour
[10] = Table 17, liquid medium: TMX 6000 mg/L, 48 Hour

Q: What does the source list for `CNC(=O)Nc1ccc(S(=O)(=O)NC(=O)c2ccccc2OC)cc1` [Metcamifen, metcamifen]?
A: Potted Rate Mean (embryos from maize ears [1]; metcamifen 800 mg/L, 24 hours): 76%; Transplant Rate Mean (embryos from maize ears [1]; metcamifen 800 mg/L, 24 hours): 68%; Potted Rate Mean (embryos from maize ears [1]; metcamifen 800 mg/L, 48 hours): 15%; Transplant Rate Mean (embryos from maize ears [1]; metcamifen 800 mg/L, 48 hours): 15%; Ears >4 Rate Mean (embryos from maize ears [2]; metcamifen 800 mg/L, 24 hours): 38%; Ears >49 Rate Mean (embryos from maize ears [2]; metcamifen 800 mg/L, 24 hours): 24%; Ears >4 Rate Mean (embryos from maize ears [2]; metcamifen 800 mg/L, 48 hours): 9%; Ears >49 Rate Mean (embryos from maize ears [2]; metcamifen 800 mg/L, 48 hours): 4%; Ears >4 DH Yield, DH Ears/Total Haploids, Mean (embryos from maize ears [2]; metcamifen 800 mg/L, 24 hours): 0.33; Ears >4 DH Yield, DH Ears/Transplants, Mean (embryos from maize ears [2]; metcamifen 800 mg/L, 24 hours): 0.47; Ears >49 DH Yield, DH Ears/Total Haploids, Mean (embryos from maize ears [2]; metcamifen 800 mg/L, 24 hours): 0.21; Ears >49 DH Yield, DH Ears/Transplants, Mean (embryos from maize ears [2]; metcamifen 800 mg/L, 24 hours): 0.30; Ears >4 DH Yield, DH Ears/Total Haploids, Mean (embryos from maize ears [2]; metcamifen 800 mg/L, 24 hours, listed as metcamifen): increased significantly; Ears >4 DH Yield, DH Ears/Total Haploids, Mean (embryos from maize ears [2]; metcamifen 800 mg/L, 48 hours): 0.07; Ears >4 DH Yield, DH Ears/Transplants, Mean (embryos from maize ears [2]; metcamifen 800 mg/L, 48 hours): 0.61; Ears >49 DH Yield, DH Ears/Total Haploids, Mean (embryos from maize ears [2]; metcamifen 800 mg/L, 48 hours): 0.03; Ears >49 DH Yield, DH Ears/Transplants, Mean (embryos from maize ears [2]; metcamifen 800 mg/L, 48 hours): 0.25; GST27 Induction After (GST27; [3]): 270 ng/mg TSP; GST27 Induction Before (GST27; [3]): 0 ng/mg TSP; GST27 Induction After (GST27; [4]): 396 ng/mg TSP; GST27 Induction Before (GST27; [4]): 0 ng/mg TSP; GST27 Induction After (GST27; [5]): 263 ng/mg TSP; GST27 Induction Before (GST27; [5]): 0 ng/mg TSP; GST27 Induction After (GST27; [6]): 340 ng/mg TSP; GST27 Induction Before (GST27; [6]): 4 ng/mg TSP; Potting Rate Mean (isolated embryos; [3]): 92.5%; Transplant Rate Mean (isolated embryos; [3]): 88.2%; Potting Rate Mean (isolated embryos; [4]): 21.5%; Transplant Rate Mean (isolated embryos; [4]): 20.4%; Potting Rate Mean (isolated embryos; [5]): 86.2%; Transplant Rate Mean (isolated embryos; [5]): 74.1%; Potting Rate Mean (isolated embryos; [6]): 9.2%; Transplant Rate Mean (isolated embryos; [6]): 9.2%

Q: How did the “Potted Rate Mean” value (embryos from maize ears [1]; TMX 4000 mg/L, 48 hours) turn out when `CN1COCN(Cc2cnc(Cl)s2)/C1=N\[N+](=O)[O-]` [TMX, thiamethoxam] was run?
A: 79%

Q: What about the “Transplant Rate Mean” value (embryos from maize ears [1]; TMX 4000 mg/L, 48 hours) of the same compound?
A: 77%

Q: What about the “Potted Rate Mean” value (embryos from maize ears [1]; TMX 6000 mg/L, 24 hours) of the same compound?
A: 95%

Q: And the “Transplant Rate Mean” value (embryos from maize ears [1]; TMX 6000 mg/L, 24 hours)?
A: 93%

Q: What about the “Ears >4 DH Yield, DH Ears/Total Haploids, Mean” value (embryos from maize ears [2]; TMX 4000 mg/L, 48 hours) of the same compound?
A: 0.29

Q: What about the “Ears >4 DH Yield, DH Ears/Transplants, Mean” value (embryos from maize ears [2]; TMX 4000 mg/L, 48 hours) of the same compound?
A: 0.37

Q: And the “Ears >49 DH Yield, DH Ears/Total Haploids, Mean” value (embryos from maize ears [2]; TMX 4000 mg/L, 48 hours)?
A: 0.12

Q: What about the “Ears >49 DH Yield, DH Ears/Transplants, Mean” value (embryos from maize ears [2]; TMX 4000 mg/L, 48 hours) of the same compound?
A: 0.16

Q: And the “Ears >4 DH Yield, DH Ears/Transplants, Mean” value (embryos from maize ears [2]; TMX 6000 mg/L, 24 hours)?
A: 0.44

Q: What about the “Ears >49 DH Yield, DH Ears/Total Haploids, Mean” value (embryos from maize ears [2]; TMX 6000 mg/L, 24 hours) of the same compound?
A: 0.20

Q: What about the “Ears >49 DH Yield, DH Ears/Transplants, Mean” value (embryos from maize ears [2]; TMX 6000 mg/L, 24 hours) of the same compound?
A: 0.21

Q: And the “Ears >4 Rate Mean” value (embryos from maize ears [2]; TMX 4000 mg/L, 48 hours)?
A: 30%

Q: And the “Ears >49 Rate Mean” value (embryos from maize ears [2]; TMX 4000 mg/L, 48 hours)?
A: 13%

Q: What about the “Ears >4 Rate Mean” value (embryos from maize ears [2]; TMX 6000 mg/L, 24 hours) of the same compound?
A: 45%

Q: What about the “Ears >49 Rate Mean” value (embryos from maize ears [2]; TMX 6000 mg/L, 24 hours) of the same compound?
A: 24%

Q: And the “GST27 Induction After” value (GST27; [7])?
A: 255 ng/mg TSP

Q: What about the “GST27 Induction Before” value (GST27; [7]) of the same compound?
A: 0 ng/mg TSP

Q: And the “GST27 Induction After” value (GST27; [8])?
A: 194 ng/mg TSP

Q: What about the “GST27 Induction Before” value (GST27; [8]) of the same compound?
A: 1 ng/mg TSP

Q: And the “GST27 Induction After” value (GST27; [9])?
A: 193 ng/mg TSP

Q: What about the “GST27 Induction Before” value (GST27; [9]) of the same compound?
A: 5 ng/mg TSP

Q: And the “GST27 Induction After” value (GST27; [10])?
A: 208 ng/mg TSP

Q: What about the “GST27 Induction Before” value (GST27; [10]) of the same compound?
A: 13 ng/mg TSP

Q: And the “Potting Rate Mean” value (isolated embryos; [7])?
A: 92.3%

Q: What about the “Transplant Rate Mean” value (isolated embryos; [7]) of the same compound?
A: 90% and 89.7%

Q: And the “Potting Rate Mean” value (isolated embryos; [8])?
A: 79.4%

Q: And the “Transplant Rate Mean” value (isolated embryos; [8])?
A: 72.2%

Q: What about the “Potting Rate Mean” value (isolated embryos; [9]) of the same compound?
A: 77.3%

Q: And the “Transplant Rate Mean” value (isolated embryos; [9])?
A: 81.3%

Q: What about the “Potting Rate Mean” value (isolated embryos; [10]) of the same compound?
A: 58.0%

Q: What about the “Transplant Rate Mean” value (isolated embryos; [10]) of the same compound?
A: 54.0%
